Source: ChEMBL document CHEMBL2021853, “Discovery of 1,2,4-triazine derivatives as adenosine A(2A) antagonists using structure based drug design” (J Med Chem, 2012)

Legend:
[1] = tested on: Plasma; experiment: Plasma protein binding in rat at 10 uM after 6 hrs
[2] = tested on: Liver microsomes; experiment: Half life in rat liver microsomes at 1 uM
[3] = target: T1, Adenosine receptor A1 (Homo sapiens, UniProt P30542)
T1 sequence (P30542 whole entry): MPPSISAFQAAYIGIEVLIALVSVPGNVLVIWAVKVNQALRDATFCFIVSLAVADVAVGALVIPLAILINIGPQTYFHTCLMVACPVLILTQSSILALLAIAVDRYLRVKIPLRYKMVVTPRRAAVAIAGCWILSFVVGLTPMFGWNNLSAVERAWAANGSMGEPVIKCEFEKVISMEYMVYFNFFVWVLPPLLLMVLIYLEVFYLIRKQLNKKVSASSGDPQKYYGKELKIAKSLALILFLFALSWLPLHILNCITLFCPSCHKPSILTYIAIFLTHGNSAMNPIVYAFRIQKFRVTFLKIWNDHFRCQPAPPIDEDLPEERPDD

[4] = target: T2, Adenosine receptor A3 (Homo sapiens) (UniProt P0DMS8); experiment: Antagonist activity at adenosine A3 receptor; assay type: functional
T2 sequence (whole entry): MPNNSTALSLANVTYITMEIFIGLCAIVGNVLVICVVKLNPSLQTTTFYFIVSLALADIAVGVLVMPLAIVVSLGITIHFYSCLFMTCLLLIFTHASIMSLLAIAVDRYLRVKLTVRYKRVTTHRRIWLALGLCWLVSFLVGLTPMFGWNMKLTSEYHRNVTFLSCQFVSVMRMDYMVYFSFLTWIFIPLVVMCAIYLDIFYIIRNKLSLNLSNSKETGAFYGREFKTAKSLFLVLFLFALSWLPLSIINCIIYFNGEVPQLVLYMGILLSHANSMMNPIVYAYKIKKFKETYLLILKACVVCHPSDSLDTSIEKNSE

[5] = Kinetic solubility of the compound
[6] = target: T3, Adenosine receptor A2b (Homo sapiens, UniProt P29275); experiment: Inhibition of adenosine A2B receptor
T3 sequence (P29275 whole entry): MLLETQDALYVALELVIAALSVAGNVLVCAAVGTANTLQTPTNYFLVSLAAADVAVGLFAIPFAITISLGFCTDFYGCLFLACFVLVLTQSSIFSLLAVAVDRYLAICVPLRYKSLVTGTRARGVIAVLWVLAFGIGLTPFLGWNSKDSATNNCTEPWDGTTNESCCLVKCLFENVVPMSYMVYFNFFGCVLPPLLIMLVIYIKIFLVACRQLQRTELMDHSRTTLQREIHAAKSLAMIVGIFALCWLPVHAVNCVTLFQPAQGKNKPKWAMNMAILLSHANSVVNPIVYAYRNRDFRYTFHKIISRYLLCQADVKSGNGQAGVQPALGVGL

[7] = tested on: Nucleic Acid; experiment: Ratio of drug level in brain to plasma in rat at 1 mg/kg, iv at 0.5 hrs; assay type: ADME, organism-based; design: dose 1 mg/kg, route intravenous
[8] = Terminal half life in rat at 1 mg/kg, iv; assay type: ADME, organism-based; design: dose 1 mg/kg, route intravenous; conditions: in vivo, read-out: beta t1/2 (converted)
[9] = AUC (infinity) in rat at 1 mg/kg, iv; assay type: ADME, organism-based; design: dose 1 mg/kg, route intravenous, time infinity; conditions: plasma
[10] = Terminal half life in rat at 2 mg/kg, po; assay type: ADME, organism-based; design: dose 2 mg/kg, route oral; conditions: in vivo, read-out: beta t1/2 (converted)
[11] = tested on: Rattus norvegicus; experiment: Reversal of haloperidol-induced catalepsy in po dosed Sprague-Dawley rat administered 30 mins post haloperidol-challenge measured after 1 hr; assay type: functional
[12] = Oral bioavailability in rat at 2 mg/kg; assay type: ADME, organism-based; conditions: in vivo
[13] = Volume of distribution at steady state in rat at 1 mg/kg, iv; assay type: ADME, organism-based; design: dose 1 mg/kg, route intravenous; conditions: in vivo, read-out: Vdss
[14] = Plasma clearance in rat at 1 mg/kg, iv; assay type: ADME, organism-based; design: dose 1 mg/kg, route intravenous
[15] = Cmax in rat at 2 mg/kg, po; assay type: ADME, organism-based; design: dose 2 mg/kg, route oral; conditions: in vivo
[16] = Tmax in rat at 2 mg/kg, po; assay type: ADME, organism-based; design: dose 2 mg/kg, route oral; conditions: in vivo
[17] = tested on: Rattus norvegicus; experiment: Reversal of haloperidol-induced catalepsy in po dosed Sprague-Dawley rat administered 30 mins post haloperidol-challenge measured after 2 hrs; assay type: functional

Row | SMILES | PPB [1] [%] | t1/2 [2] [h] | Ki [3] [nM] | Kinetic_solubility [5] [µM] | also measured
1 | Cc1cc(-c2nnc(N)nc2-c2cccc(F)c2)cc(C)n1 | 87 | 1.3 | 110 |  | 
2 | Nc1nnc(-c2cc(Cl)cc(Cl)c2)c(-c2ccccc2)n1 |  | 1.8 |  |  | INH [4]: > 10 µM
3 | Cc1cc(-c2nnc(N)nc2-c2ccccc2)cc(C)c1O | 93.3 | 1.25 | 16.6 |  | 
4 | Cc1cc(-c2nnc(N)nc2-c2ccc(F)cc2)cc(C(F)(F)F)n1 | 93 | 1.62 | 117 |  | 
5 | Nc1nnc(-c2ccccc2)c(-c2ccccc2)n1 |  | 0.383 | 275 | > 100 | 
6 | Nc1nnc(-c2cccc(Cl)c2)c(-c2ccccc2)n1 | 97.9 | 0.483 |  |  | 
7 | Nc1nnc(-c2ccc(O)c(Cl)c2)c(-c2ccccc2)n1 | 98 | 1.15 |  | 45 | 
8 | Cc1cc(-c2nnc(N)nc2-c2ccccc2)cc(C)n1 | 82.1 | 1.67 | 85.1 | 40 | INH [4]: > 10 µM; Ki [6]: 50.1 nM
9 | Cc1cc(-c2nnc(N)nc2-c2ccccc2)cc(C(F)(F)F)n1 | 92 | 1.43 |  |  | BPR [7]: 3.2; half-life [8]: 1.2 h; AUC(0-inf) [9]: 397 ng·h/mL; half-life [10]: 1.1 h; Activity [11]: Dose-dependent effect; ED50 [11]: 0.2 mg/kg; bioavailability [12]: 100%; Vd [13]: 4.6 L/kg; clearance [14]: 42 mL/min/kg; Cmax [15]: 244 ng/mL; Tmax [16]: 0.4 h; Activity [17]: Dose-dependent effect; ED50 [17]: 0.2 mg/kg
10 | Cc1cc(C)cc(-c2nnc(N)nc2-c2ccccc2)c1 | 98 | 0.15 | 195 | 20 | 
11 | Cc1cc(-c2nnc(N)nc2-c2cc(F)cc(F)c2)cc(C)n1 |  | 1.67 | 170 | 45 | 
